{
  "source": "patent US11110079B2",
  "about": "“Mebendazole polymorph for treatment and prevention of tumors” (THE JOHNS HOPKINS UNIVERSITY, priority 2015, dated 2021)",
  "key": {"GL261-luc glioma": {"system": "GL261-luc glioma", "settings": "for difference in survival (Mantel-Cox test): GL261-luc glioma-bearing mice, 100 mg/kg oral gavage from day 5; for survival of GL261 glioma-bearing mice: other benzimidazoles, even at higher doses than MBZ; for mean survival: GL261 model, MBZ polymorphs 50 mg/kg oral", "experimental": "All animal studies were approved by the Animal Care and Use Committee (ACUC) of the Johns Hopkins University. The intracranial implantation of GL261-luc in the frontal lobe and D425 cells in the cerebellum of the mouse brain followed the procedure described before (3,4). […] MBZ and other benzimidazoles were prepared by either mixing the power with PBS and sesame oil (1:1, v:v) (Sigma) or by grinding the tablets to powder and resuspending in the aforementioned PBS/sesame oil mixture. Elacridar was prepared as a 10 mg/ml suspension in 0.5% hydroxypropylmethylcellulose and 0.5% Tween 80 in PBS similarly as described before (15).\nAnimal survival data were analyzed by GraphPad Prism 5.0. The p-values were determined by a Mantel-Cox test. A p-value under 0.05 was accepted as statistically significant."}, "in vivo": {"experiment": "in vivo", "settings": "for mean B/P ratio: 6 h", "experimental": "(§1) Female C57BL6 mice, 5-6 weeks of age, were purchased from NCl. Animal experimentation was conducted under an approved IACUC protocol and complied with local and national guidelines. All MBZ polymorphs and tablets were administered by oral gavage at a dose of 50 mg/kg. Elacridar was administered by oral gavage at 50 mg/kg 2 hours prior to the administration of MBZ-C. Mice (3 animals/time point) were first anesthetized via intraperitoneal injection of 60 μl of a stock solution containing ketamine hydrochloride (75 mg/kg) (100 mg/ml; Ketamine HCl; Abbot Laboratories, Chicago, Ill., USA) and xylazine (7.5 mg/kg) (100 mg/ml; Xyla-ject®, Phoenix Pharmaceutical, St. Joseph, Mo., USA) in a sterile 0.9% NaCl solution. Then the blood samples were taken by puncturing and aspiring from the left heart ventricle. Blood samples were mixed with 5 mM EDTA and centrifuged at 10000 g for 5 min to obtain the plasma for further analysis.\nFor brain distribution studies, mice were perfused under anesthesia with 20 ml ice-cold saline supplemented with 20 μl of 0.02% heparin by injecting slowly into the left heart ventricle using a 20 gauge needle. The right atrium was cut open before to allow the blood outflow. The yellow color of kidney indicated a good perfusion quality that was essential to deplete blood from the brain tissue. In GL261 tumor-bearing mice, GL261 tumor was distinguished from the normal brain by easily recognizable differences in color and shade. GL261 tumor was separated with a scalpel and the normal brain tissue was cut from the contralateral hemisphere. All brain samples were weighed and stored at −80° C. before processing.\n(§2) Blood, brain and brain tumor tissues were harvested as a function of time after MBZ administration. To compare the pharmacokinetics of MBZ polymorphs, three cohorts of mice each were administered a single dose of 50 mg/kg by oral gavage. For the initial comparison studies, plasma samples were obtained at 1, 2.5, 4, 6, 8, 15, and 24 hours after MBZ administration while brain tissue was only collected at 6 hours. For the comparison studies of polymorph C with or without ELD, plasma and brain tissue samples were obtained at 2.5, 4, and 8 hours after MBZ administration. Brain tumor tissue samples were also obtained for polymorph C alone.\n(§3) MBZ and the two metabolites, 2-amino-5-benzoyl-benzimidazole (MBZ-NH2, CAS 52329-60-9) and rac dihydro mebendazole (MBZ-OH, CAS 60254-95-7), were quantified in plasma, brain and brain tumor tissue. Tissue homogenates were prepared at a concentration of 200 mg/ml in plasma prior to extraction. Mebendazole and metabolites were extracted from 50 μl of plasma or tissue homogenates with 0.1 ml of methanol containing 0.5 μg/ml of the internal standard A620223.69. After centrifugation, the supernatant (60 μl) was mixed with water (40 μl) and then transferred into autosampler vials. […] The analytes were monitored using an AB Sciex triple quadrapole™ 5500 mass-spectrometric detector (Applied Biosystems, Foster City, Calif., USA) using electrospray ionization operating in positive mode. The spectrometer was programmed to allow the [MH+] ions of MBZ, MBZ-NH2, MBZ-OH, and A620223.69 at m/z 296.0, 238.0, 298.0, and 287.2, respectively to pass through the first quadrupole (Q1) and into the collision cell (Q2). The daughter ions for MBZ (m/z 263.9), MBZ-NH2 (m/z 105.1), MBZ-OH (m/z 266.0), and A620223.69 (m/z 124.1) were monitored through the third quadrupole (Q3). Calibration curves for MBZ and metabolites were computed using the area ratio peak of the analysis to the internal standard by using a quadratic equation with a 1/x weighting function over the range of 5 to 500 ng/ml (MBZ) and 1 to 500 ng/ml (metabolites) with dilutions of up to 1:100 (v:v). If one or more concentrations were below limits of quantification, a value of ½ the limit of quantification was assigned for pharmacokinetic calculations."}, "[1]": {"settings": "in vivo, po, 50 mg/kg", "experimental": "as §1, §2\nas §3, with “calculations. If two consecutive time points were below limits of quantification, the last one was excluded from the analysis.” for “calculations.”\nMean plasma and brain concentrations were calculated at each time point for both MBZ and its metabolites. 1.045 g/ml was used as the average wet rodent brain tissue density (16). Pharmacokinetic parameters were calculated from mean MBZ and its metabolites concentration-time data using noncompartmental methods as analyzed in Phoenix® WinNonlin® version 6.3 (Pharsight Corp., Mountain View, Calif.). Cmax and Tmax were the observed values from the mean concentration data. The AUClast was calculated using the log-linear trapezoidal method. λz was determined from the slope of the terminal phase of the concentration-time profile. The terminal half-life (T1/2) was determined by dividing 0.693 by λz. […]"}, "GL261 glioma cells": {"system": "GL261 glioma cells", "experiment": "Cytotoxicity in cultured GL261 cells (colorimetric assay, 72 h)", "format": "cell-based, mouse", "settings": "for cytotoxicity in GL261 cells: in vitro", "protocol": "Cells were incubated with the indicated drugs for 72 h and the living cells were measured by the colorimetric assay.\n(3,14) GL261 and D425 cells were maintained in DMEM media supplemented with 10% fetal bovine serum and antibiotics at 37° C. in humidified air containing 5% CO2."}, "D425 medulloblastoma": {"system": "D425 medulloblastoma", "experiment": "Orthotopic D425 medulloblastoma xenograft model (survival)", "format": "in vivo, mouse", "settings": "D425 model, elacridar alone; marginal", "protocol": "The intracranial implantation of GL261-luc in the frontal lobe and D425 cells in the cerebellum of the mouse brain followed the procedure described before (3,4). Five days after tumor implantation, mice were gavaged with MBZ or the other benzimidazoles at 50 mg/kg five days a week. MBZ and other benzimidazoles were prepared by either mixing the power with PBS and sesame oil (1:1, v:v) (Sigma) or by grinding the tablets to powder and resuspending in the aforementioned PBS/sesame oil mixture. Elacridar was prepared as a 10 mg/ml suspension in 0.5% hydroxypropylmethylcellulose and 0.5% Tween 80 in PBS similarly as described before (15)."}, "[2]": {"settings": "female, C57BL6, mouse, po, 50 mg/kg"}},
  "note": "Entries after “also recorded” stand apart in the source; their conditions may differ. Where two headings read alike, the source gives them in different places.",
  "data": [
    {"compound": "COC(=O)Nc1nc2ccc(Sc3ccccc3)cc2[nH]1", "note": "[fenbendazole]", "values": [
      {"measurement": "difference in survival (Mantel-Cox test)", "setting": "GL261-luc glioma", "value": "not significant"},
      {"measurement": "survival of GL261 glioma-bearing mice", "setting": "GL261-luc glioma", "value": "failed or only marginally improved the survival"}
    ]},
    {"compound": "COC(=O)Nc1nc2cc(C(=O)c3ccc(F)cc3)ccc2[nH]1", "note": "[flubendazole]", "values": [
      {"measurement": "difference in survival (Mantel-Cox test)", "setting": "GL261-luc glioma", "value": "not significant"},
      {"measurement": "survival of GL261 glioma-bearing mice", "setting": "GL261-luc glioma", "value": "failed or only marginally improved the survival"}
    ]},
    {"compound": "COC(=O)Nc1nc2ccc(C(=O)c3ccccc3)cc2[nH]1", "note": "[MBZ-C, Mebendazole]", "values": [
      {"measurement": "Kp", "setting": "in vivo; female, C57BL6, mouse, AUC0-24h B/P ratio", "value": 0.82},
      {"measurement": "brain Cmax, equivalent concentration", "setting": "in vivo; female, C57BL6, mouse, po", "value": 7.1, "unit": "µM"},
      {"measurement": "peak brain concentration", "setting": "in vivo; [2]", "value": "2,016 ng/g"},
      {"measurement": "Kp at 8 h", "setting": "in vivo; female, C57BL6, mouse, po, 50 mg/kg, brain/plasma (B/P) ratio on average", "value": 0.75},
      {"measurement": "change of brain concentration of MBZ in terms of AUC0-8h", "setting": "in vivo; mouse, po, 50 mg/kg", "value": "did not significantly change"},
      {"measurement": "time of peak brain concentration after oral administration", "setting": "in vivo; mouse, po, 50 mg/kg", "value": "Four"},
      {"measurement": "plasma AUC0-24 h", "setting": "[1]; female, C57BL6, mouse", "value": "16,039 h*ng/ml"},
      {"measurement": "cytotoxicity in GL261 cells", "setting": "GL261 glioma cells", "value": "equal cytotoxicity"},
      {"measurement": "mean survival", "setting": "GL261-luc glioma", "value": 48.5, "unit": "days"},
      {"measurement": "efficacy in GL261 glioma model", "setting": "GL261-luc glioma; oral gavage 50 mg/kg, from day 5 after implantation, 50 mg/kg", "value": "best efficacy"}
    ]},
    {"compound": "COc1cc2c(cc1OC)CN(CCc1ccc(NC(=O)c3cccc4c(=O)c5cccc(OC)c5[nH]c34)cc1)CC2", "note": "[elacridar]", "values": [
      {"measurement": "survival benefit", "setting": "D425 medulloblastoma", "value": 9, "unit": "days"},
      {"measurement": "IC50", "setting": "GL261 glioma cells; GL261 mouse glioma cells", "value": 5.8, "unit": "µM"},
      {"measurement": "median survival", "setting": "GL261-luc glioma; GL261, single agent 50 mg/kg, control 29.5 days", "value": 34, "unit": "days"}
    ]},
    {"compound": "COC(=O)Nc1nc2ccc(C(=O)c3ccccc3)cc2[nH]1", "note": "[MBZ-A, Mebendazole]", "values": [
      {"measurement": "mean B/P ratio", "setting": "in vivo; [2]", "value": 0.32},
      {"measurement": "plasma AUC0-24 h", "setting": "[1]; female, C57BL6, mouse", "value": "3,052 h*ng/ml"},
      {"measurement": "plasma AUC0-24 h relative to MBZ-C", "setting": "[1]; female, C57BL6, mouse", "value": 19, "unit": "%"},
      {"measurement": "cytotoxicity in GL261 cells", "setting": "GL261 glioma cells", "value": "equal cytotoxicity"}
    ]},
    {"compound": "Nc1nc2ccc(C(=O)c3ccccc3)cc2[nH]1", "note": "[MBZ-NH2, 2-amino-5-benzoyl-benzimidazole]", "values": [
      {"measurement": "B/P ratio of MBZ-NH2", "setting": "in vivo; female, C57BL6, mouse", "value": 0.12},
      {"measurement": "elevation of B/P ratio by co-administration of elacridar", "setting": "in vivo; female, C57BL6, mouse", "value": 2.5, "unit": "folds"},
      {"measurement": "distribution in GL261 brain tumor vs contralateral normal brain tissue", "setting": "in vivo; [2]", "value": "preferentially accumulated in the GL261 brain tumor"},
      {"measurement": "elevation of AUC0-8 h by co-administration of elacridar", "setting": "in vivo; mouse", "value": 2.4, "unit": "folds"},
      {"measurement": "brain levels of metabolite in terms of Cmax and AUC0-24 h", "setting": "in vivo; mouse, po, 50 mg/kg", "value": "much lower levels than MBZ-OH"},
      {"measurement": "distribution in GL261 brain tumor vs contralateral normal brain tissue", "setting": "in vivo; mouse, po, 50 mg/kg", "value": "significantly higher levels than in the contralateral brain"},
      {"measurement": "plasma AUC0-24 h of metabolite", "setting": "[1]; female, C57BL6, mouse", "value": "10,516 h*ng/ml"},
      {"measurement": "cytotoxicity in GL261 cells", "setting": "GL261 glioma cells", "value": "only a marginal cytotoxicity; also recorded: least cytotoxic"}
    ]},
    {"compound": "COC(=O)Nc1nc2ccc(C(=O)c3ccccc3)cc2[nH]1", "note": "[MBZ-B, Mebendazole]", "values": [
      {"measurement": "mean B/P ratio", "setting": "in vivo; [2]", "value": 0.64},
      {"measurement": "plasma AUC0-24 h", "setting": "[1]; female, C57BL6, mouse", "value": "26,474 h*ng/ml"},
      {"measurement": "plasma AUC0-24 h relative to MBZ-C", "setting": "[1]; female, C57BL6, mouse", "value": 165, "unit": "%"},
      {"measurement": "cytotoxicity in GL261 cells", "setting": "GL261 glioma cells", "value": "equal cytotoxicity"},
      {"measurement": "toxicity in GL261 glioma-bearing mice", "setting": "GL261-luc glioma; 50 mg/kg oral", "value": "presumably died from drug toxicity"},
      {"measurement": "treatment-related death among 6 treated mice", "setting": "GL261-luc glioma; GL261 glioma-bearing mice, 50 mg/kg oral", "value": 1},
      {"measurement": "mean survival", "setting": "GL261-luc glioma", "value": 45, "unit": "days"}
    ]},
    {"compound": "c1ccc2[nH]c(-c3cscn3)nc2c1", "note": "[thiabendazole, Thiabendazole]", "values": [
      {"measurement": "difference in survival (Mantel-Cox test)", "setting": "GL261-luc glioma", "value": "not significant"},
      {"measurement": "survival of GL261 glioma-bearing mice", "setting": "GL261-luc glioma", "value": "failed or only marginally improved the survival"}
    ]},
    {"compound": "CCCSc1ccc2nc(NC(=O)OC)[nH]c2c1", "note": "[albendazole]", "values": [
      {"measurement": "survival of GL261 glioma-bearing mice", "setting": "GL261-luc glioma", "value": "failed or only marginally improved the survival"}
    ]},
    {"compound": "COC(=O)Nc1nc2cc([S+]([O-])c3ccccc3)ccc2[nH]1", "note": "(stereo not drawn) [oxifendazole]", "values": [
      {"measurement": "difference in survival (Mantel-Cox test)", "setting": "GL261-luc glioma", "value": "not significant"},
      {"measurement": "survival of GL261 glioma-bearing mice", "setting": "GL261-luc glioma", "value": "failed or only marginally improved the survival"}
    ]},
    {"compound": "COC(=O)Nc1nc2ccc(C(O)c3ccccc3)cc2[nH]1", "note": "(racemic) [MBZ-OH, rac dihydro mebendazole]", "values": [
      {"measurement": "plasma AUC0-24 h of metabolite", "setting": "[1]; mouse", "value": "5,781 h*ng/ml"}
    ]}
  ]
}
